Values of other authors, collected in patent US20070154533A1, “Method of increasing testosterone and related steriod concentrations in women” (priority 2005, published 2007).
Like-named read-outs stand apart in the source and are kept apart here.

How the values were obtained:
[1] = biological target: T1, sex hormone binding globulin (Homo sapiens, UniProt P04278); details: in women
T1 sequence (P04278 30-402): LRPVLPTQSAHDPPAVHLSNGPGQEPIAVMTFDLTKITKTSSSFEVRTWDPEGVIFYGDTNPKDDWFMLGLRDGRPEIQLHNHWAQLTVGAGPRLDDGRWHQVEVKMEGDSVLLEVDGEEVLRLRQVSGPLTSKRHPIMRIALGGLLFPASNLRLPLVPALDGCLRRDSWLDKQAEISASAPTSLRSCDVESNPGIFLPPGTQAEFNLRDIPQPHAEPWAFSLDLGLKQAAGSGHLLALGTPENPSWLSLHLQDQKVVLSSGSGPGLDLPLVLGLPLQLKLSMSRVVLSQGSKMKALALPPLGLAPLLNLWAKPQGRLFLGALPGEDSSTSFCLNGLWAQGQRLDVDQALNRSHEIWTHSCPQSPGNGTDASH

[2] = biological target: albumin (Homo sapiens, UniProt P02768); details: in women
[3] = patch delivering 150 ug/day, HIV-infected women, over 12 weeks
[4] = for Mean (±SD) serum free testosterone concentration: transdermal patch, 12 weeks, oophorectomized women on conjugated equine estrogens
[5] = circulating testosterone

Sequence of albumin (P02768 25-609): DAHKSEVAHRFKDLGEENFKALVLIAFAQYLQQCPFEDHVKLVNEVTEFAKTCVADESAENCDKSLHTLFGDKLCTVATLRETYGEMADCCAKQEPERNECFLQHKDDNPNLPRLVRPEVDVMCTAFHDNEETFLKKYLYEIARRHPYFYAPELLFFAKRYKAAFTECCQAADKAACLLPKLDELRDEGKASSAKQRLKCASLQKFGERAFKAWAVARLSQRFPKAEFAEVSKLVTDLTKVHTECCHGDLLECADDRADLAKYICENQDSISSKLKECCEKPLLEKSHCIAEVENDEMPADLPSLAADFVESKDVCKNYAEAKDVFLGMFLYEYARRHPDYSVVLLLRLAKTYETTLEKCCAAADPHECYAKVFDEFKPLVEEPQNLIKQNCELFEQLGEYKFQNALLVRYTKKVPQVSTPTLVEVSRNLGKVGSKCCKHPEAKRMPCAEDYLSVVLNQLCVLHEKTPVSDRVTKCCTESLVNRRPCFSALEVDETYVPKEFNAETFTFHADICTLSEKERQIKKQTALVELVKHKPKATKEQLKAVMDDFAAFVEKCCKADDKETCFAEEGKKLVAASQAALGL

C[C@]12CC[C@H]3[C@@H](CCC4=CC(=O)CC[C@@]43C)[C@@H]1CC[C@@H]2O [Testosterone, testosterone]
Binding to sex hormone binding globulin [1]: approximately 65% | Bound weakly to albumin [2]: 33% | Increase in body weight [3]: 4% | Scores on the telephone-based diary ([4]; higher dose): did not increase significantly | Psychological Well-Being Index positive-well-being, depressed-mood, and composite scores ([4]; higher dose vs placebo): improved at the higher dose | Percentages of women who had sexual fantasies, masturbated, or engaged in sexual intercourse at least once a week ([4]; higher dose, vs base line): increased two to three times from base line | Brief Index of Sexual Functioning for Women scores ([4]; higher testosterone dose (300 μg per day), P=0.03 vs placebo): further increases in scores for frequency of sexual activity and pleasure-orgasm | Mean (±SD) serum free testosterone concentration ([4]; 160 μg of testosterone per day): 3.9 ± 2.4 pg/mL | Mean (±SD) serum free testosterone concentration ([4]; 300 μg of testosterone per day): 4.9 ± 4.8 pg/mL | Bound to protein in the blood [5]: 98%
